Measurements from patent US8716287B2, “Pharmaceutical compounds” (Sentinel Oncology Limited, priority 2010, dated 2014).
Entries after “also recorded” stand apart in the source; their conditions may differ. Where a name gives a salt, the structure may show the parent alone. Read-outs that look alike come from different tables or passages of the source.

Experiments:
Chk-1 kinase = Chk-1 kinase (Homo sapiens (Human), UniProt O14757); experiment: Chk-1 kinase inhibiting activity (33P-ATP filter assay, CHKtide substrate); assay type: biochemical
Protocol: The compounds of the invention were tested for activity against Chk-1 kinase using the materials and protocols set out below.
Base Reaction buffer: 20 mM Hepes (pH 7.5), 10 mM MgCl2, 1 mM EGTA, 0.02% Brij35, 0.02 mg/ml BSA, 0.1 mM Na3VO4, 2 mM DTT, 1% DMSO
*Required cofactors are added individually to each kinase reaction
(i) Prepare indicated substrate in freshly prepared Base Reaction Buffer
(ii) Deliver any required cofactors to the substrate solution above
(iii) Deliver indicated kinase into the substrate solution and gently mix
(iv) Deliver compounds in DMSO into the kinase reaction mixture
(v) Deliver ^33P-ATP (specific activity 0.01 μCi/μl final) into the reaction mixture to initiate the reaction.
(vi) Incubate kinase reaction for 120 minutes at room temperature
(vii) Reactions are spotted onto P81 ion exchange paper (Whatman #3698-915)
(viii) Wash filters extensively in 0.1% phosphoric acid.
(ix) Dry filters and measure counts in scintillation counter
Recombinant full length construct, N-terminal GST tagged, purified from insect cells.
No special measures were taken to activate this kinase.
Final concentration in assay=0.5 nM
Peptide sequence: [[…]]
Final concentration in assay=20 μM
No additional cofactors are added to the reaction mixture

MOLM-13 cells = experiment: Inhibition of cell growth in MOLM-13 cells (Alamar blue); assay type: cell-based; conditions: Homo sapiens, 72 h incubation
Protocol: (§1) Studies were carried out to test the effect of compounds on the inhibition of cell growth in MOLM-13 and MV4-11 cells.
(§2) The following protocol was used:
(§3) (a) Cells were seeded in 96-well plates at cell densities of 2500/well (MOLM-13) and 10,000/well (MV4-11). Cells were then incubated overnight prior to addition of compound or vehicle control.
(§4) (b) Test compounds were prepared from 10 mM DMSO stocks to give a final concentration range of 10 μM, 3 μM, 1 μM, 0.3 μM, 0.1 μM, […], […] and vehicle control. The DMSO content was constant at 0.1%.
(§5) (c) Test compounds were incubated with the cells for 72 h at 37° C. 5% CO2 in a humidified atmosphere.
(§6) (d) Alamar blue 10% (v/v) was then added and incubated for a further 4 h, and fluorescent product detected using the BMG FLUOstar plate reader.
(§7) (e) Media only background values were subtracted and the data analysed using a 4-parameter logistic equation in GraphPad Prism.
(§8) From the results obtained by following the above protocol, the IC50 values against MOLM-13 and MV4-11 cells of the compounds of Examples 20, 21, 22, 25, 33, 35, 37, 38, 44, 48, 49, 50, 51, 53, 54 and 55 were determined.

MV4-11 cells = experiment: Inhibition of cell growth in MV4-11 cells (Alamar blue); assay type: cell-based; conditions: Homo sapiens, 72 h incubation
Protocol: as §1, §2, §3, §4, §5, §6, §7, §8

HT29 cells = experiment: Sensitisation of HT29 cells to SN38 (Alamar blue cell growth); assay type: cell-based, human; conditions: for fold shift in the IC50 value of SN38: HT29 cells
Protocol: Studies were carried out to test the sensitising effect of compounds of the invention on the ability of the DNA damaging compound 7-ethyl-10-hydroxycamptothecin (SN38), an active metabolite of the anti-cancer drug irinotecan, to inhibit cell growth in HT29 cells.
as §2
(a) HT29 cells were seeded in 96-well plates at a concentration of 3000 cells per well and allowed to adhere overnight prior to addition of compound or vehicle control.
(b) SN38 was prepared from a 10 mM DMSO stock to give a final concentration range of 1 μM, 300 nM, 100 nM, 30 nM, 10 nM, 3 nM, 1 nM, and vehicle control.
(c) Test compounds were prepared from 10 mM DMSO stocks to typically give a final concentration range of 3 μM, 1 μM, 0.3 μM. 0.1 μM, 0.03 μM and vehicle control. The final DMSO content was 0.4%.
(d) Test compounds were incubated with the cells for 72 h at 37° C. 5% CO2 in a humidified atmosphere.
(e) Alamar blue 10% (v/v) was then added and incubated for a further 6 h, and fluorescent product detected using the BMG FLUOstar plate reader.
(f) Data were analysed using a 4-parameter logistic equation in GraphPad Prism.
Sensitisation is determined by the enhancement in IC50 of SN38 by the addition of the Chk-1 kinase inhibitor. In the protocol described above, the IC50 for SN-38 is determined the presence of varying doses of the Chk-1 inhibitor. The fold shift represents a decrease in IC50 for SN-38 at a dose of Chk-1 inhibitor that has no effect by itself.

[1] = Chk-1 kinase, Table 3, read-out: IC50
[2] = ranges given, read-out: IC50 values against Chk-1 kinase

Chain of Chk-1 kinase (O14757 whole entry): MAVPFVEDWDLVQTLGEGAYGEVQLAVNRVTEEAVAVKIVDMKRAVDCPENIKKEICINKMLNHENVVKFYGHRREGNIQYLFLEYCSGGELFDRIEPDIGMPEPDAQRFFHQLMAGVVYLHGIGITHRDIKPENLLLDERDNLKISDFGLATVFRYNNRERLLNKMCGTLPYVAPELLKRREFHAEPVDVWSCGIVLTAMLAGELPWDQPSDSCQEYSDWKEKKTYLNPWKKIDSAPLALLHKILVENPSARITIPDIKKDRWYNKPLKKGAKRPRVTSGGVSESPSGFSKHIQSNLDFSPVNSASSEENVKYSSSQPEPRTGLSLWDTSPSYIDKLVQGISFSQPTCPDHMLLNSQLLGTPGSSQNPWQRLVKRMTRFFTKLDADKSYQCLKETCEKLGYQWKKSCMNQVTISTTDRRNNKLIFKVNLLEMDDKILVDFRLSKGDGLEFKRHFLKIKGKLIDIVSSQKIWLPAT

Row | IC50 (Chk-1 kinase; [1]) [nM] | IC50 (Chk-1 kinase; [2]) [nM] | IC50 (MOLM-13 cells) [nM] | IC50 (MV4-11 cells) [nM] | IC50 (Chk-1 kinase; comparative tests, Example 70, read-out: Chk-1 IC50) [nM] | fold improvement in potency against Chk-1 enzyme (Chk-1 kinase; relative to Example 30 (alkylene chain 1 to 2 carbon atoms)) [fold] | SMILES | fold shift in the IC50 value of SN38 (HT29 cells; test compound at 3 μM) | Cell potentiation factor (HT29 cells; SN38 sensitisation assay in HT-29 cells, compound at 3 μM) [fold] | fold shift in the IC50 value of SN38 (HT29 cells; test compound at 1 μM)
1 | 3.3 | < 10 | 240 | 860 | – | – | COc1cc(CCNCc2ccc(N3CCN(C)CC3)cc2)ccc1NC(=O)Nc1cnc(C#N)cn1 [Example 51, 1-(5-Cyano-pyrazin-2-yl)-3-(2-methoxy-4-{2-[4-(4-methyl-piperazin-1-yl)-benzylamino]-ethyl}-phenyl)-urea] | – | – | –
2 | 0.48 | < 10 | 34 | 254 | – | – | COc1ccccc1CNCCc1cc(OC)c(NC(=O)Nc2cnc(C#N)cn2)cc1Cl [Example 55, 1-{5-Chloro-2-methoxy-4-[2-(2-methoxy-benzylamino)-ethyl]-phenyl}-3-(5-cyano-pyrazin-2-yl)-urea hydrochloride] | – | – | –
3 | 0.56 | < 10 | 30 | 288 | – | – | COc1ccc([C@H](C)NCCc2cc(OC)c(NC(=O)Nc3cnc(C#N)cn3)cc2Cl)cc1 [Example 53, 1-(5-Chloro-2-methoxy-4-{2-[(S)-1-(4-methoxy-phenyl)-ethylamino]-ethyl}-phenyl)-3-(5-cyano-pyrazin-2-yl)-urea hydrochloride] | – | – | –
4 | – | < 10 | 14 | 52 | – | – | COc1cc(CCNCc2ccc3c(c2)OCO3)c(Cl)cc1NC(=O)Nc1cnc(C#N)cn1 [Example 54, 1-(4-{2-[(Benzo[1,3]-dioxol-5-ylmethyl)-amino]-ethyl}-5-chloro-2-methoxy-phenyl)-3-(5-cyano-pyrazin-2-yl)-urea hydrochloride] | – | – | –
5 | 2 | < 10 | – | – | – | – | N#Cc1cnc(NC(=O)Nc2ccc(CCNCc3cccc(F)c3)c(Cl)c2)cn1 [Example 9, 1-{3-Chloro-4-[2-(3-fluoro-benzylamino)-ethyl]-phenyl}-3-(5-cyano-pyrazin-2-yl)-urea] | three; also recorded: greater than ten | – | –
6 | 44 | 10 to 100 | – | – | – | – | N#Cc1cnc(NC(=O)Nc2ccc(CCNCc3ccc(F)cc3)cc2)cn1 [Example 2, 1-(5-Cyano-pyrazin-2-yl)-3-{4-[2-(4-fluoro-benzylamino)-ethyl]-phenyl}-urea] | three | – | –
7 | 4.1 | < 10 | 1300 | 1290 | – | – | COc1cc(OCCNCc2ccc(F)cc2)ccc1NC(=O)Nc1cnc(C#N)cn1 [Example 21, 1-(5-Cyano-pyrazin-2-yl)-3-{4-[2-(4-fluorobenzylamino)-ethoxy]-2-methoxy-phenyl}-urea] | – | – | –
8 | 26 | 10 to 100 | – | – | – | – | N#Cc1cnc(NC(=O)Nc2ccc(OCCNCc3ccc(F)cc3F)c(Cl)c2)cn1 [Example 6, 1-{3-Chloro-4-[2-(2,4-difluoro-benzylamino)-ethoxy]-phenyl}-3-(5-cyano-pyrazin-2-yl)-urea] | three | – | –
9 | 18 | 10 to 100 | 1790 | 1710 | – | – | N#Cc1cnc(NC(=O)Nc2ccc(CCNCc3ccc(N4CCOCC4)cc3)c(Cl)c2)cn1 [Example 25, 1-{3-Chloro-4-[2-(4-morpholin-4-yl-benzylamino)-ethyl]-phenyl}-3-(5-cyano-pyrazin-2-yl)-urea] | – | – | –
10 | 62 | 10 to 100 | – | – | – | – | N#Cc1cnc(NC(=O)Nc2ccc(CCNCc3ccccc3Cl)c(Cl)c2)cn1 [Example 10, 1-{3-Chloro-4-[2-(2-chloro-benzylamino)-ethyl]-phenyl}-3-(5-cyano-pyrazin-2-yl)-urea] | three | – | –
11 | 78 | 10 to 100 | – | – | – | – | N#Cc1cnc(NC(=O)Nc2ccc(CCNCc3ccc(C(F)(F)F)cc3)c(Cl)c2)cn1 [Example 17, 1-{3-Chloro-4-[2-(4-trifluoromethyl-benzylamino)-ethyl]-phenyl}-3-(5-cyano-pyrazin-2-yl)-urea hydrochloride] | – | – | two

Further lines, the compound ahead of its results:

Row | SMILES | IC50 (Chk-1 kinase; [1]) [nM] | IC50 (Chk-1 kinase; [2]) [nM] | IC50 (MOLM-13 cells) [nM] | IC50 (MV4-11 cells) [nM] | IC50 (Chk-1 kinase; comparative tests, Example 70, read-out: Chk-1 IC50) [nM] | fold improvement in potency against Chk-1 enzyme (Chk-1 kinase; relative to Example 30 (alkylene chain 1 to 2 carbon atoms)) [fold] | fold shift in the IC50 value of SN38 (HT29 cells; test compound at 3 μM) | Cell potentiation factor (HT29 cells; SN38 sensitisation assay in HT-29 cells, compound at 3 μM) [fold] | fold shift in the IC50 value of SN38 (HT29 cells; test compound at 1 μM)
12 | COc1cc(CCN[C@@H](C)c2ccc(F)cc2)ccc1NC(=O)Nc1cnc(C#N)cn1 [Example 44, 1-(5-Cyano-pyrazin-2-yl)-3-(4-{2-[(S)-1-(4-fluoro-phenyl)-ethylamino]-ethyl}-2-methoxy-phenyl)-urea] | 5.1 | < 10 | 850 | 960 | – | – | – | – | –
13 | N#Cc1cnc(NC(=O)Nc2ccc(CCNCc3ccccc3)cc2)cn1 [Example 1, 1-[4-(2-Benzylamino-ethyl)-phenyl]-3-(5-cyano-pyrazin-2-yl)-urea] | 200 | 100 to 1000 | – | – | 99 | ~3 | three | 4 | –
14 | C[C@H](NCCc1ccc(NC(=O)Nc2cnc(C#N)cn2)cc1Cl)c1ccc(F)cc1 [Example 18, 1-(3-Chloro-4-{2-[(S)-1-(4-fluoro-phenyl)-ethylamino]-ethyl}-phenyl)-3-(5-cyano-yrazin-2-yl)-urea hydrochloride] | 21 | 10 to 100 | – | – | – | – | – | – | two
15 | N#Cc1cnc(NC(=O)Nc2ccc(CCNCc3ccc(OC(F)(F)F)cc3)c(Cl)c2)cn1 [Example 14, 1-{3-Chloro-4-[2-(4-trifluoromethoxy-benzylamino)-ethyl]-phenyl}-3-(5-cyano-pyrazin-2-yl)-urea] | 68 | 10 to 100 | – | – | – | – | three | – | –
16 | N#Cc1cnc(NC(=O)Nc2ccc(CCNCc3ccc(Cl)cc3)c(Cl)c2)cn1 [Example 8, 1-{3-Chloro-4-[2-(4-chloro-benzylamino)-ethyl]-phenyl}-3-(5-cyano-pyrazin-2-yl)-urea] | 11 | 10 to 100 | – | – | – | – | three; also recorded: greater than ten | – | –
17 | N#Cc1cnc(NC(=O)Nc2ccc(CCNCc3ccccc3F)c(Cl)c2)cn1 [Example 23, 1-{3-Chloro-4-[2-(2-fluoro-benzylamino)-ethyl]-phenyl}-3-(5-cyano-pyrazin-2-yl)-urea] | 11 | 10 to 100 | – | – | – | – | three; also recorded: greater than ten | – | –
18 | COc1ccc(CNCc2ccc(NC(=O)Nc3cnc(C#N)cn3)c(OC)c2)cc1 [Example 60, 1-(5-Cyano-pyrazin-2-yl)-3-{2-methoxy-4-[(4-methoxy-benzylamino)-methyl]-phenyl}-urea] | 1.6 | < 10 | – | – | – | – | three; also recorded: greater than ten | – | –
19 | N#Cc1cnc(NC(=O)Nc2ccc(CCNCc3ccc(F)cc3F)cc2)cn1 [Example 3, 1-(5-Cyano-pyrazin-2-yl)-3-{4-[2-(2,4-difluoro-benzylamino)-ethyl]-phenyl}-urea] | 179 | 100 to 1000 | – | – | – | – | three | – | –
20 | N#Cc1cnc(NC(=O)Nc2ccc(CCNCCc3ccc(F)cc3)c(Cl)c2)cn1 [Example 7, 1-(3-Chloro-4-(2-(4-fluorophenethylamino)ethyl)phenyl)-3-(5-cyanopyrazin-2-yl)urea] | 16 | 10 to 100 | – | – | – | – | – | – | two
